# Data as given in patent US6936585B2, “Corticotropin releasing factor 2 receptor agonists” (priority 2002, dated 2005).
# Ends that are not written are not given here. Peptide text beside a SMILES is read from it.
# Assays:
# CRF2R = molecular target: T1, CRF2R (Homo sapiens, UniProt Q13324); assay: CRF2R agonist activation (EC50 / Emax), called comparative CRF binding; type: cell-based; settings: for Emax: read-out: CRF2R Emax; for EC50: read-out: CRF2R EC50
# T1 sequence (Q13324 1-411): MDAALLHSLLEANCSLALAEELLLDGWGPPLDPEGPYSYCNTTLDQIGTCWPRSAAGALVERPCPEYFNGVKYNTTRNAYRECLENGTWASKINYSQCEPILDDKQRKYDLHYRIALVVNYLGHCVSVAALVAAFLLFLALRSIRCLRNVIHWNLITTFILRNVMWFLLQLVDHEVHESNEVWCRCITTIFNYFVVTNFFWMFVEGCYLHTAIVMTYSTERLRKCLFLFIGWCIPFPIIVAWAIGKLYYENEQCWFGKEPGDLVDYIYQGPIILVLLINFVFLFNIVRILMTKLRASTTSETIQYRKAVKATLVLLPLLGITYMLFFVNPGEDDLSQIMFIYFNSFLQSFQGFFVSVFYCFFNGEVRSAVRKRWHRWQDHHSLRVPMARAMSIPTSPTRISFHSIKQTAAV
# In short: (§1)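 Agonism at each human CRF receptor subtype is inferred from increased cAMP relative to vehicle, using cells expressing that subtype and either lysate cAMP measurement or a cAMP response element reporter.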
# CRF1R = molecular target: T2, CRF1R (Homo sapiens, UniProt P34998); assay: CRF1R agonist activation (EC50 / Emax), called comparative CRF binding; type: cell-based; settings: for Emax: read-out: CRF1R Emax; for EC50: read-out: CRF1R EC50
# T2 sequence (P34998 24-415): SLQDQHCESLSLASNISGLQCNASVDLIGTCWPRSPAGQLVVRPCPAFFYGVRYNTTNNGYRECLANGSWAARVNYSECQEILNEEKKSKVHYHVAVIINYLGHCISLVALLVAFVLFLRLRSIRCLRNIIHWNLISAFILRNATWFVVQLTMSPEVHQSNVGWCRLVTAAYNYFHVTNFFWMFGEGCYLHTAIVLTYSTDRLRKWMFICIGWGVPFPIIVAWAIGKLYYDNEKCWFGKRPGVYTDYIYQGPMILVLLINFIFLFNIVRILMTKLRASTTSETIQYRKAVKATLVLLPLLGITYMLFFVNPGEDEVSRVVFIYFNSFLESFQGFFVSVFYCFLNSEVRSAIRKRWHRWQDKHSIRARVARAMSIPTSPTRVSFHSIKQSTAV
# In short: as §1
Compound,Emax (CRF2R) [%],Emax (CRF1R) [%],EC50 (CRF2R) [nM],EC50 (CRF1R) [nM]
CC[C@H](C)[C@H](NC(=O)[C@H](C)NC(=O)[C@H](CC(N)=O)NC(=O)[C@H](CCC(N)=O)NC(=O)[C@H](CCC(=O)O)NC(=O)[C@H](C)NC(=O)[C@H](CCCNC(=N)N)NC(=O)[C@H](CCC(=O)O)NC(=O)[C@H](CCCNC(=N)N)NC(=O)[C@H](CCC(N)=O)NC(=O)[C@H](CO)NC(=O)[C@H](CCC(N)=O)NC(=O)[C@@H](NC(=O)[C@H](CCCNC(=N)N)NC(=O)[C@H](C)NC(=O)[C@H](CC(C)C)NC(=O)[C@H](CCC(=O)O)NC(=O)[C@H](CC(C)C)NC(=O)[C@H](CC(C)C)NC(=O)[C@@H](NC(=O)[C@H](CCCNC(=N)N)NC(=O)[C@H](CC(C)C)NC(=O)[C@H](CC(C)C)NC(=O)[C@H](CCC(N)=O)NC(=O)[C@H](CC(C)C)NC(=O)[C@@H]1CCCN1C(=O)[C@H](CC(C)C)NC(=O)[C@H](CC(=O)O)NC(=O)[C@@H](NC(=O)[C@H](CO)NC(=O)[C@H](CC(C)C)NC(=O)[C@H](CO)NC(=O)[C@@H]1CCCN1C(=O)[C@H](CC(N)=O)NC(=O)[C@@H](N)CC(=O)O)[C@@H](C)CC)[C@@H](C)O)[C@@H](C)O)C(=O)N[C@H](C(=O)N[C@@H](Cc1ccccc1)C(=O)N[C@@H](C)C(=O)N[C@@H](CO)C(=O)N[C@H](C(N)=O)C(C)C)[C@@H](C)CC [compound 176] (H-DNPSLSIDLPLQLLRTLLELARTQSQRERAEQNAIIFASV-NH2; N-terminus assumed),90.2,26.9,–,–
NDDPPISIDLPLQLLRNMIEMARIENEREQAGLNAKYLAEV-NH2 [compound 270],19.3,7.85,–,–
CC[C@H](C)[C@H](N)C(=O)N[C@H](C(=O)N[C@@H](CC(C)C)C(=O)N[C@@H](CO)C(=O)N[C@@H](CC(C)C)C(=O)N[C@@H](CC(=O)O)C(=O)N[C@H](C(=O)N1CCC[C@H]1C(=O)N[C@H](C(=O)NCC(=O)N[C@@H](CC(C)C)C(=O)N[C@@H](CC(C)C)C(=O)N[C@@H](CCC(N)=O)C(=O)N[C@H](C(=O)N[C@@H](CC(C)C)C(=O)N[C@@H](CC(C)C)C(=O)N[C@@H](CCC(=O)O)C(=O)N[C@@H](CCC(N)=O)C(=O)N[C@@H](C)C(=O)N[C@@H](CCCNC(=N)N)C(=O)N[C@@H](Cc1c[nH]cn1)C(=O)N[C@@H](C)C(=O)N[C@@H](Cc1c[nH]cn1)C(=O)N[C@@H](C)C(=O)N[C@@H](Cc1c[nH]cn1)C(=O)N[C@@H](C)C(=O)N[C@@H](Cc1c[nH]cn1)C(=O)N[C@@H](C)C(=O)N[C@@H](Cc1c[nH]cn1)C(=O)N[C@@H](C)C(=O)N[C@@H](CCC(N)=O)C(=O)N[C@@H](C)C(=O)N[C@@H](Cc1c[nH]cn1)C(=O)N[C@H](C(=O)N[C@@H](CC(C)C)C(=O)N[C@@H](C)C(=O)N[C@@H](Cc1c[nH]cn1)C(=O)N[C@H](C(N)=O)C(C)C)[C@@H](C)CC)[C@@H](C)CC)[C@@H](C)CC)C(C)C)C(C)C [compound 369] (H-IVLSLDVPIGLLQILLEQARHAHAHAHAHAQAHILAHV-NH2),18,4,–,–
NDDPPISIDLPTYLLRNMIEMARIENEREQAGLNAKYLAEV-NH2 [compound 266],19.4,4.45,–,–
SQEPPISLDLPIHLLREVLEMTKADQLAQQAHSNRKLLDIA-NH2 [compound 94],6.15,7.3,–,–
CC[C@H](C)[C@H](N)C(=O)N[C@H](C(=O)N[C@@H](CC(C)C)C(=O)N[C@@H](CO)C(=O)N[C@@H](CC(C)C)C(=O)N[C@@H](CCC(=O)O)C(=O)N[C@H](C(=O)N1CCC[C@H]1C(=O)N[C@H](C(=O)NCC(=O)N[C@@H](CC(C)C)C(=O)N[C@@H](CC(C)C)C(=O)N[C@@H](CCC(N)=O)C(=O)N[C@H](C(=O)N[C@@H](CC(C)C)C(=O)N[C@@H](CC(C)C)C(=O)N[C@@H](CCC(=O)O)C(=O)N[C@@H](CCC(N)=O)C(=O)N[C@@H](C)C(=O)N[C@@H](CCCNC(=N)N)C(=O)N[C@@H](C)C(=O)N[C@@H](CCCNC(=N)N)C(=O)N[C@@H](C)C(=O)N[C@@H](C)C(=O)N[C@@H](CCCNC(=N)N)C(=O)N[C@@H](CCC(=O)O)C(=O)N[C@@H](CCC(N)=O)C(=O)N[C@@H](C)C(=O)N[C@H](C(=O)N[C@H](C(=O)N[C@@H](CC(N)=O)C(=O)N[C@@H](C)C(=O)N[C@@H](CCCNC(=N)N)C(=O)N[C@H](C(=O)N[C@@H](CC(C)C)C(=O)N[C@@H](C)C(=O)N[C@@H](CCCNC(=N)N)C(=O)N[C@H](C(N)=O)C(C)C)[C@@H](C)CC)[C@@H](C)O)[C@@H](C)O)[C@@H](C)CC)[C@@H](C)CC)C(C)C)C(C)C [compound 120] (H-IVLSLEVPIGLLQILLEQARARAAREQATTNARILARV-NH2; N-terminus assumed),100,7,69.9,≥ 100
CC[C@H](C)[C@H](NC(=O)[C@H](CCCNC(=N)N)NC(=O)[C@H](C)NC(=O)[C@H](CC(N)=O)NC(=O)[C@H](CCC(N)=O)NC(=O)[C@H](CCC(=O)O)NC(=O)[C@H](C)NC(=O)[C@H](CCCNC(=N)N)NC(=O)[C@H](CCC(=O)O)NC(=O)[C@H](CCCNC(=N)N)NC(=O)[C@H](CCC(N)=O)NC(=O)[C@H](CO)NC(=O)[C@H](CCC(N)=O)NC(=O)[C@@H](NC(=O)[C@H](CCCNC(=N)N)NC(=O)[C@H](C)NC(=O)[C@H](CC(C)C)NC(=O)[C@H](CCC(=O)O)NC(=O)[C@H](CC(C)C)NC(=O)[C@H](CC(C)C)NC(=O)[C@@H](NC(=O)[C@H](CCCNC(=N)N)NC(=O)[C@H](CC(C)C)NC(=O)[C@H](CC(C)C)NC(=O)[C@@H](NC(=O)[C@H](CC(C)C)NC(=O)[C@@H]1CCCN1C(=O)[C@H](CC(C)C)NC(=O)[C@H](CC(=O)O)NC(=O)[C@@H](NC(=O)[C@H](CO)NC(=O)[C@H](CC(C)C)NC(=O)[C@H](CO)NC(=O)[C@@H]1CCCN1C(=O)[C@H](CC(N)=O)NC(=O)[C@@H](N)CC(=O)O)[C@@H](C)CC)[C@@H](C)CC)[C@@H](C)O)[C@@H](C)O)C(=O)N[C@@H](Cc1ccccc1)C(=O)N[C@@H](C)C(=O)N[C@@H](CCCNC(=N)N)C(=O)N[C@H](C(N)=O)C(C)C [compound 330] (H-DNPSLSIDLPLILLRTLLELARTQSQRERAEQNARIFARV-NH2; N-terminus assumed),93.7,86.8,6,≥ 1000
SQEPPISLDLTFHLLREVLEQARARAAREQATTNARILARV-NH2 [compound 157],60.6,91,–,–
SQEPPISLDLTIHLLREVLEMTKADQLAQQAHSNRKLLDIA-NH2 [compound 87],14.7,5.3,–,–
CC[C@H](C)[C@H](NC(=O)[C@H](C)NC(=O)[C@H](CC(N)=O)NC(=O)[C@H](CCC(N)=O)NC(=O)[C@H](CCC(=O)O)NC(=O)[C@H](C)NC(=O)[C@H](CCCNC(=N)N)NC(=O)[C@H](CCC(=O)O)NC(=O)[C@H](CCCNC(=N)N)NC(=O)[C@H](CCC(N)=O)NC(=O)[C@H](CO)NC(=O)[C@H](CCC(N)=O)NC(=O)[C@@H](NC(=O)[C@H](CCCNC(=N)N)NC(=O)[C@H](C)NC(=O)[C@H](CC(C)C)NC(=O)[C@H](CCC(=O)O)NC(=O)[C@H](CC(C)C)NC(=O)[C@H](CC(C)C)NC(=O)[C@@H](NC(=O)[C@H](CCCNC(=N)N)NC(=O)[C@H](CC(C)C)NC(=O)[C@H](CC(C)C)NC(=O)[C@H](CC(C)C)NC(=O)[C@H](Cc1ccccc1)NC(=O)[C@@H]1CCCN1C(=O)[C@H](CC(C)C)NC(=O)[C@H](CC(=O)O)NC(=O)[C@@H](NC(=O)[C@H](CO)NC(=O)[C@H](CC(C)C)NC(=O)[C@H](CO)NC(=O)[C@@H]1CCCN1C(=O)[C@H](CC(N)=O)NC(=O)[C@@H](N)CC(=O)O)[C@@H](C)CC)[C@@H](C)O)[C@@H](C)O)C(=O)N[C@H](C(=O)N[C@@H](Cc1ccccc1)C(=O)N[C@@H](C)C(=O)N[C@@H](CO)C(=O)N[C@H](C(N)=O)C(C)C)[C@@H](C)CC [compound 180] (H-DNPSLSIDLPFLLLRTLLELARTQSQRERAEQNAIIFASV-NH2; N-terminus assumed),95.7,99.3,3.14,125
